Assay results as given in patent publication US9771369B2, “Compounds and methods for kinase modulation, and indications therefor” (Plexxikon Inc., priority 2014, dated 2017).

Tests used:
c-kit mutant D816V = c-kit mutant D816V (Homo sapiens (Human), UniProt P10721, D816V/DEL694-753); test: c-Kit mutant D816V biochemical assay (AlphaScreen kinase activity)
Experimental: The c-kit mutant D816V (or kinase domain thereof) is an active kinase in AlphaScreen. IC50 values are determined with respect to inhibition of c-Kit mutant D816V kinase activity, where inhibition of phosphorylation of a peptide substrate is measured as a function of compound concentration. Compounds to be tested were dissolved in DMSO to a concentration of 30 mM. These were diluted […] of DMSO (4 mM) and 1 μl was added to an assay plate. These were then serially diluted 1:3 (50 μl to […] DMSO) for a total of 8 points. Plates were prepared such that each kinase reaction is […] in 1× kinase buffer (25 mM HEPES, pH 7.2, 8 mM MgCl2, 2 mM MnCl2, 50 mM NaCl, 0.01% Brij, 1 mM DTT, 0.01% BSA), 5% DMSO and 10 μM ATP. Substrate was 30 nM biotin-(E4Y)10 (EMD Millipore, Cat#12-440). C-kit mutant D816V kinase was at 0.75 ng per sample. After incubation of the kinase reaction for 30 minutes at room temperature, 5 μl of donor beads (Streptavidin coated beads (Perkin Elmer Life Science) final concentration 7.5 μg/ml) in stop buffer (25 mM Hepes pH 7.5, 100 mM EDTA, 0.01% BSA) was added, the sample was mixed and incubated for 30 minutes at room temperature before adding […] of acceptor beads (PY30 coated beads (Perkin Elmer Life Science) final concentration 7.5 μg/ml) in stop buffer. The samples were incubated for 60 minutes at room temperature and the signal per well was read on EnVision reader. Phosphorylated substrate results in binding of the PY30 antibody and association of the donor and acceptor beads such that signal correlates with kinase activity. The signal vs. compound concentration was used to determine the IC50.
Recombinant c-kit mutant D816V (residues 551-934, kinase insertion domain residues 694-753 deleted) with a 6×-histidine N-terminal tag (SEQ ID NO: 3) was expressed in E. coli Arctic Express (DE3) RIL (Stratagene). Cells were grown in Terrific Broth (TB) media to an OD600 of 0.6 at 37° C. at which temperature was reduced to 10° C., protein was induced with 1.0 mM IPTG for 18 hours and harvested by centrifugation at 8000×g for 30 minutes. Cells were re-suspended in 0.1M KPO4 pH 8.0, 250 mM NaCl, 10% Glycerol, 0.75% NP-40, 25 mM Imidazole, 5 mM BME with 0.2 mg/ml Lysosyme, 2.0 mM PMSF, 25 μg/ml DNAse I, incubated in ice for 30 minutes and lyzed with a cell disruptor (MicroFluidics). The lysate was clarified by centrifugation at 30,000×g for 2 hours. The protein was captured with Talon resin (Clontech). Contaminating proteins were washed off with 25 mM Tris-HCl pH 8.3, 250 mM NaCl, 15% Glycerol, 1% Triton X-100, and protein eluted using 100 mM EDTA. The protein was further purified using Gel Filtration column 26/600 Superdex 300 (GE) in 50 mM Tris-HCl , pH 8.0, 250 mM NaCl, 15% Glycerol, 5 mM BME. The protein was aliquoted and flash-frozen in liquid Nitrogen.

[1] = tested on: BaF3-FL KIT D816V or BaF3-FL KIT V560G/D816V cell line; test: Cell-based assays of c-Kit mutant kinase activity (cell proliferation, ATPlite); details: at least one of the c-kit cell assays of Example 7
Experimental: The c-Kit mutant D816V inhibitors were assessed using an engineered BaF3-FL KIT D816V or BaF3-FL KIT V560G/D816V cell line. The BaF3-FL KIT D816V cell lines were created by introduction of KIT mutant (D816V) full length constructs that render the cells dependent on the introduced kinase for growth. Inhibitors of c-Kit mutant D816V kinase reduce or eliminate the mediated c-kit mutant D816V kinase activation, resulting in reduced cell proliferation of the BaF3-FL Kit mutant D816V cells. This inhibition is measured by the effect of compound concentration on cell growth to assess IC50 values. BaF3-FL KIT D816V cells were seeded at 1×10^4 cells per well of a 96 well cell culture plate in 50 μl of cell culture medium of RPMI Medium 1× (Invitrogen #11875-093) supplemented with 10% FBS (Invitrogen #10438), 1% Non Essential Amino Acids (Invitrogen #11140), 1% Penicillin Streptomycin (Invitrogen #15140), 1% L-Glutamine (Invitrogen #25030-081). Compounds were dissolved in DMSO at a concentration of 5 mM and were serially diluted 1:3 for a total of eight points and added to the cells to a final maximum concentration of 10 μM in 100 μl cell culture medium (final concentration 0.2% DMSO). Cells were also treated with Dasatinib as a positive control. The cells were incubated at 37° C., 5% CO2 for three days. ATPlite Buffer (Perkin Elmer #6016739) and substrate were equilibrated to room temperature, and enzyme/substrate Recombinant Firefly Luciferase/D-Luciferin was reconstituted. The cell plates were equilibrated to room temperature for 30 minutes, then lysed by addition of 25 μL per well of the ATPlite Reagent. The plate was mixed for 5 minutes on a plate shaker to lyse the cells. The plates were read on a Tecan Safire using Luminescence protocol modified to read 0.1s per well. The luminescence reading assesses the ATP content, which correlates directly with cell number such that the reading as a function of compound concentration is used to determine the IC50 value.
Plasmids P75635 and P75565 were engineered for mammalian cell expression. In both plasmids, full-length human v-kit Hardy-Zuckerman 4 feline sarcoma viral oncogene homolog gene (NCBI accession NM_000222, KIT, residues M1-V976) was subcloned into the pCI-Neo vector (Promega E1841). Plasmid P75635 contains the mutation of residue Aspartic acid 816 to Valine. Plasmid P75565 contains the double mutation of residues Valine 560 to Glycine and Aspartic acid 816 to Valine. The pCI-neo Mammalian Expression Vector carries the human cytomegalovirus (CMV) immediate-early enhancer/promoter region to promote constitutive expression of KIT and contains the neomycin phosphotransferase gene, a selectable marker.
It is understood that the results of these assays may vary as assay conditions are varied. Inhibition levels determined under the conditions described herein represent a relative activity for the compounds tested under the specific conditions employed. The cell based assays are likely to show variability due to the complexity of the system and the sensitivity thereof to any changes in the assay conditions. […] In some instances, the compounds were not tested in all of the assays, or assay results were not valid.

Sequence of c-kit mutant D816V (P10721 other isoform, or with tags, fused parts or gaps D816V/del 694-753): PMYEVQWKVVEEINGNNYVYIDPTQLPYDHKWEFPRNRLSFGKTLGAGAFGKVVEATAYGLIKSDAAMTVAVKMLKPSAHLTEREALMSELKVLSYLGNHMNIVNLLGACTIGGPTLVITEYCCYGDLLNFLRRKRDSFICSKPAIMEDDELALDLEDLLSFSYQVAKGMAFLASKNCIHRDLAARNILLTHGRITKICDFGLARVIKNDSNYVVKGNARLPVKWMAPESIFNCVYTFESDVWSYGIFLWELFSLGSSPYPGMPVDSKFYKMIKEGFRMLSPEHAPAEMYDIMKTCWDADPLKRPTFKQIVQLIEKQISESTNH

SMILES	IC50 (c-kit mutant D816V)	IC50 [1]
Cc1nc(C2CCN(c3ncnc4[nH]c(-c5ccc(F)cc5)cc34)CC2)[nH]c1-c1ccc2c(c1)OC(F)(F)O2 [P-3109, 4-[4-[5-(2,2-difluoro-1,3-benzodioxol-5-yl)-4-methyl-1H-imidazol-2-yl]-1-piperidyl]-6-(4-fluorophenyl)-7H-pyrrolo[2,3-d]pyrimidine]	0.0001 to 1 µM	< 10000 nM
Cc1nc(C2CCN(c3ncnc4[nH]c(-c5ccc(C#N)cc5)cc34)CC2)[nH]c1-c1ccc2c(c1)OC(F)(F)O2 [P-3110, 4-[4-[4-[5-(2,2-difluoro-1,3-benzodioxol-5-yl)-4-methyl-1H-imidazol-2-yl]-1-piperidyl]-7H-pyrrolo[2,3-d]pyrimidin-6-yl]benzonitrile]	0.0001 to 1 µM	< 10000 nM
COc1cc(-c2cc3c(N4CCC(c5nc(C)c(-c6ccc7c(c6)OC(F)(F)O7)[nH]5)CC4)ncnc3[nH]2)ccn1 [P-3111, 4-[4-[5-(2,2-difluoro-1,3-benzodioxol-5-yl)-4-methyl-1H-imidazol-2-yl]-1-piperidyl]-6-(2-methoxy-4-pyridyl)-7H-pyrrolo[2,3-d]pyrimidine]	0.0001 to 1 µM	< 10000 nM
COc1ccc(-c2[nH]c(C3CCN(c4ncnc5[nH]c(-c6ccc(C#N)cc6)cc45)CC3)nc2C)cn1 [P-3112, 4-[4-[4-[5-(6-methoxy-3-pyridyl)-4-methyl-1H-imidazol-2-yl]-1-piperidyl]-7H-pyrrolo[2,3-d]pyrimidin-6-yl]benzonitrile]	0.0001 to 1 µM	< 10000 nM
Cc1nc(C2CCN(c3ncnc4[nH]c(-c5ccc(C#N)cc5)cc34)CC2)[nH]c1-c1ccc(OC(F)F)cc1 [P-3113, 4-[4-[4-[5-[4-(difluoromethoxy)phenyl]-4-methyl-1H-imidazol-2-yl]-1-piperidyl]-7H-pyrrolo[2,3-d]pyrimidin-6-yl]benzonitrile]	0.0001 to 1 µM	< 10000 nM
COc1cccc(-c2[nH]c(C3CCN(c4ncnc5[nH]c(-c6cnn(C(F)F)c6)cc45)CC3)nc2C)c1 [P-3114, 6-[1-(difluoromethyl)pyrazol-4-yl]-4-[4-[5-(3-methoxyphenyl)-4-methyl-1H-imidazol-2-yl]-1-piperidyl]-7H-pyrrolo[2,3-d]pyrimidine]	0.0001 to 1 µM	< 10000 nM
Cc1nc(C2CCN(c3ncnc4[nH]c(-c5cnn(C(F)F)c5)cc34)CC2)[nH]c1-c1ccc(OC(F)F)cc1 [P-3115, 4-[4-[5-[4-(difluoromethoxy)phenyl]-4-methyl-1H-imidazol-2-yl]-1-piperidyl]-6-[1-(difluoromethyl)pyrazol-4-yl]-7H-pyrrolo[2,3-d]pyrimidine]	0.0001 to 1 µM	< 10000 nM
Cc1nc(C2CCN(c3ncnc4[nH]c(-c5cnn(C(F)F)c5)cc34)CC2)[nH]c1-c1ccc(OC(F)(F)F)cc1 [P-3116, 6-[1-(difluoromethyl)pyrazol-4-yl]-4-[4-[4-methyl-5-[4-(trifluoromethoxy)phenyl]-1H-imidazol-2-yl]-1-piperidyl]-7H-pyrrolo[2,3-d]pyrimidine]	0.0001 to 1 µM	< 10000 nM
COc1cc(-c2cc3c(N4CCC(c5nc(C)c(-c6ccc(C)s6)[nH]5)CC4)ncnc3[nH]2)ccn1 [P-3117, 6-(2-methoxy-4-pyridyl)-4-[4-[4-methyl-5-(5-methyl-2-thienyl)-1H-imidazol-2-yl]-1-piperidyl]-7H-pyrrolo[2,3-d]pyrimidine]	0.0001 to 1 µM	< 10000 nM
Cc1ccc(-c2[nH]c(C3CCN(c4ncnc5[nH]c(-c6ccc(F)cc6)cc45)CC3)nc2C)s1 [P-3118, 6-(4-fluorophenyl)-4-[4-[4-methyl-5-(5-methyl-2-thienyl)-1H-imidazol-2-yl]-1-piperidyl]-7H-pyrrolo[2,3-d]pyrimidine]	0.0001 to 1 µM	< 10000 nM
Cc1nc(C2CCN(c3ncnc4[nH]c(-c5ccc(F)cc5)cc34)CC2)[nH]c1-c1ccc(Cl)s1 [P-3119, 4-[4-[5-(5-chloro-2-thienyl)-4-methyl-1H-imidazol-2-yl]-1-piperidyl]-6-(4-fluorophenyl)-7H-pyrrolo[2,3-d]pyrimidine]	0.0001 to 1 µM	< 10000 nM
Cc1cc2c(N3CCC(c4nc(C)c(-c5ccc6c(c5)OCO6)[nH]4)CC3)ncnc2[nH]1 [P-3120, 4-[4-[5-(1,3-benzodioxol-5-yl)-4-methyl-1H-imidazol-2-yl]-1-piperidyl]-6-methyl-7H-pyrrolo[2,3-d]pyrimidine]	1 to 10 µM	< 10000 nM
Cc1cc2c(N3CCC(c4nc(C)c(-c5ccc6c(c5)OCCO6)[nH]4)CC3)ncnc2[nH]1 [P-3121, 4-[4-[5-(2,3-dihydro-1,4-benzodioxin-6-yl)-4-methyl-1H-imidazol-2-yl]-1-piperidyl]-6-methyl-7H-pyrrolo[2,3-d]pyrimidine]	0.0001 to 1 µM	< 10000 nM
Cc1nn(C)cc1-c1cc2c(N3CCC(c4nc(C)c(-c5ccc(OC(F)(F)F)cc5)[nH]4)CC3)ncnc2[nH]1 [P-3122, 6-(1,3-dimethylpyrazol-4-yl)-4-[4-[4-methyl-5-[4-(trifluoromethoxy)phenyl]-1H-imidazol-2-yl]-1-piperidyl]-7H-pyrrolo[2,3-d]pyrimidine]	0.0001 to 1 µM	< 10000 nM
COc1cccc(-c2[nH]c(C3CCN(c4ncnc5[nH]c(-c6ccnc(OC)c6)cc45)CC3)nc2C(F)(F)F)c1 [P-3123, 4-[4-[5-(3-methoxyphenyl)-4-(trifluoromethyl)-1H-imidazol-2-yl]-1-piperidyl]-6-(2-methoxy-4-pyridyl)-7H-pyrrolo[2,3-d]pyrimidine]	0.0001 to 1 µM	< 10000 nM
COc1cccc(-c2[nH]c(C3CCN(c4ncnc5[nH]c(-c6ccc(C#N)cc6)cc45)CC3)nc2C(F)(F)F)c1 [P-3124, 4-[4-[4-[5-(3-methoxyphenyl)-4-(trifluoromethyl)-1H-imidazol-2-yl]-1-piperidyl]-7H-pyrrolo[2,3-d]pyrimidin-6-yl]benzonitrile]	0.0001 to 1 µM	< 10000 nM
